Results: patent US9284283B2, “Macrocyclic compounds for modulating IL-17” (ENSEMBLE THERAPEUTICS CORPORATION, priority 2012, dated 2016)

Molecular target: T1, biotinylated human IL-17 (binding to IL17R/Fc) (Homo sapiens, UniProt Q16552)
T1 construct: purchased R&D Systems 317-ILB (IL-17, biotinylated); 177-IR (IL17R/Fc)
T1 sequence (Q16552 20-155 limits assumed): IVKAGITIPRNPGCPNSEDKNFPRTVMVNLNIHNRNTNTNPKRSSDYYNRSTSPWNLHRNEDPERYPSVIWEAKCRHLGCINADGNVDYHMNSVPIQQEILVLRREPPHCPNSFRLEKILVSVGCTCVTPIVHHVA
Assay: IL-17 competition ELISA II (captured IL17R/Fc, biotinylated IL-17)
Procedure, shortened: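 Competition read-out: absorbance at 450 nm after streptavidin-HRP/TMB detection, fitted to a 4-parameter logistic model bounded by no-competitor and blank wells to give IC50. Compound was serially diluted 5-fold from 1 μM alongside 20 nM (stock) biotinylated IL-17 on IL17R/Fc (10 nM) captured via goat anti-human IgG, 30 min at room temperature.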

| Compound | IC50 |
| --- | --- |
| CN1CCCCCN(C)C(=O)[C@@H](CC(N)=O)NC(=O)[C@@H](Cc2ccc(NC(=O)[C@@H](NC(=O)C(F)(F)c3ccccc3)C3CCCCC3)cc2)NC(=O)CC2(CCCC2)CC1=O [Compound 670] | < 100 nM |
| C[C@H]1NC(=O)[C@@H](Cc2ccc(NC(=O)[C@H](Cc3ccccc3Cl)NC(=O)c3ccc(F)cc3)cc2)NC(=O)CC2(CCCC2)CC(=O)N(C)CCCCCN(C)C1=O [Compound 525] | < 100 nM |
| CCC(F)(F)C(=O)N[C@H](C(=O)Nc1ccc(C[C@H]2NC(=O)CC3(CCCC3)CC(=O)OCCCCCNC(=O)CNC2=O)cc1)C1CCCCC1 [Compound 677] | 100 to 1000 nM |
| C[C@H]1NC(=O)[C@@H](Cc2ccc(NC(=O)[C@H](Cc3ccccc3Cl)NC(=O)OCc3ccccc3)cc2)NC(=O)CC2(CCCC2)CC(=O)NCCCCCNC1=O [Compound 576] | < 100 nM |
| CC(C)OC(=O)N[C@@H](Cc1ccccc1Cl)C(=O)Nc1ccc(C[C@H]2NC(=O)CC3(CCCC3)CC(=O)NCCOCCOCCNC2=O)cc1 [Compound 580] | < 100 nM |
| CN1CCCCCNC(=O)[C@@H](C(C)(C)C)NC(=O)[C@@H](Cc2ccc(NC(=O)[C@H](Cc3ccccc3Cl)NC(=O)Cc3cccc(O)c3)cc2)NC(=O)CC2(CCCC2)CC1=O [Compound 462] | < 100 nM |
| CN1C(=O)CC2(CCCC2)CC(=O)NCCOCCOCCNC(=O)[C@H]1Cc1ccc(NC(=O)[C@H](Cc2ccccc2Cl)NC(=O)C2(c3ccc(F)cc3)CC2)cc1 [Compound 504] | 100 to 1000 nM |
| O=C1CC2(CCCC2)CC(=O)N[C@H](Cc2ccc(NC(=O)[C@H](Cc3ccccc3Cl)NC(=O)Cc3ccc(F)cc3)cc2)C(=O)NCCCC[C@@H](C(=O)O)N1 [Compound 460] | < 100 nM |
| CN(C)CCOc1ccc(CC(=O)N[C@@H](Cc2ccccc2Cl)C(=O)Nc2ccc(C[C@H]3NC(=O)CC4(CCCC4)CC(=O)NCCCCCNC(=O)[C@@H](Cc4ccccc4)NC3=O)cc2)cc1 [Compound 431] | < 100 nM |
| CN1CCOCCN(C)C(=O)[C@@H](CCS(C)(=O)=O)NC(=O)[C@@H](Cc2ccc(NC(=O)[C@H](Cc3ccccc3Cl)NC(=O)C(F)(F)c3ccccc3)cc2)NC(=O)CC2(CCCC2)CC1=O [Compound 649] | < 100 nM |
| O=C1CNC(=O)[C@H](Cc2ccc(NC(=O)[C@@H](Cc3ccccc3Cl)NC(=O)Cc3ccccc3)cc2)NC(=O)CC2(CCCC2)CC(=O)N[C@@H](C(=O)O)CCCCN1 [Compound 454] | 1000 to 10000 nM |
| O=C1CC2(CCCC2)CC(=O)N[C@H](Cc2ccc(NC(=O)[C@H](Cc3ccccc3Cl)NC(=O)Cc3ccc(CO)cc3)cc2)C(=O)NCCNCCN1 [Compound 412] | 100 to 1000 nM |
| C[C@H]1NC(=O)[C@@H](CCCNC(=O)[C@H](Cc2ccccc2Cl)NC(=O)Cc2ccc(F)cc2)NC(=O)CC2(CCCC2)CC(=O)NCCCCCNC1=O [Compound 607] | > 10000 nM |
| O=C1CC2(CCCC2)CC(=O)N[C@H](Cc2ccc(NC(=O)[C@H](Cc3ccccc3Cl)NC(=O)c3cccnc3)cc2)C(=O)N[C@@H](CO)C(=O)NCCCC[C@@H](C(=O)O)N1 [Compound 451] | < 100 nM |
| C[C@H]1NC(=O)[C@@H](Cc2ccc(NC(=O)[C@H](Cc3ccccc3Cl)NC(=O)C(F)(F)c3ccccc3)cc2)NC(=O)C[C@@H](Cc2ccccc2)NC(=O)CCNC(=O)CCNC1=O [Compound 634] | < 100 nM |
| CN1CCCCCNC(=O)[C@@H]2CCCN2C(=O)[C@@H](Cc2ccc(NC(=O)[C@H](Cc3ccccc3)N(C)C(=O)c3ccccc3)cc2)N(C)C(=O)CC2(CCCC2)CC1=O [Compound 383] | 1000 to 10000 nM |
| CN1CCOCCOCCNC(=O)[C@@H](Cc2ccc(NC(=O)[C@@H](NC(=O)Cc3ccc(N(C)C)cc3)C3CCCCC3)cc2)NC(=O)CC2(CCCC2)CC1=O [Compound 640] | < 100 nM |
| CC(=O)N[C@@H](Cc1ccccc1Cl)C(=O)Nc1ccc(C[C@H]2NC(=O)CC3(CCCC3)CC(=O)N[C@H](C(=O)O)CCCCNC2=O)cc1 [Compound 456] | 100 to 1000 nM |
| O=C1CNC(=O)[C@H](Cc2ccc(NC(=O)[C@H](Cc3ccccc3Cl)NC(=O)Cc3ccccc3)cc2)NC(=O)CC2(CCCC2)CC(=O)NCCCCCN1 [Compound 519] | < 100 nM |
| C[C@H]1NC(=O)[C@@H](Cc2ccc(NC(=O)[C@@H](NC(=O)C(F)(F)c3ccccc3)C3CCCCC3)cc2)NC(=O)CC2(CCCC2)CC(=O)N(C)CCN(C)CCN(C)C1=O [Compound 604] | < 100 nM |
| C[C@H]1NC(=O)[C@@H](Cc2ccc(NC(=O)[C@H](Cc3ccccc3Cl)NC(=O)Cc3ccc(F)cc3)cc2)NC(=O)CN(Cc2ccccc2)CC(=O)NCCCCCNC1=O [Compound 557] | 100 to 1000 nM |
| CN1CCOCCOCCNC(=O)[C@@H](Cc2ccc(NC(=O)[C@H](Cc3ccccc3Cl)NC(=O)C(=O)c3ccccc3)cc2)NC(=O)CC2(CCCC2)CC1=O [Compound 585] | < 100 nM |
| CN1CCOCCOCCNC(=O)[C@@H](Cc2ccc(NC(=O)[C@H](CC3CCCCC3)NC(=O)C(F)(F)c3ccccc3)cc2)NC(=O)CC2(CCCC2)CC1=O [Compound 613] | < 100 nM |
| C[C@H]1NC(=O)[C@@H](CCNC(=O)[C@H](Cc2ccccc2Cl)NC(=O)Cc2ccc(F)cc2)NC(=O)CC2(CCCC2)CC(=O)NCCCCCNC1=O [Compound 609] | > 10000 nM |

| Compound | IC50 |
| --- | --- |
| C[C@H]1NC(=O)[C@@H](Cc2ccc(NC(=O)[C@H](Cc3ccccc3Cl)NC(=O)Cc3ccc(F)cc3)cc2)N(C)C(=O)CC2(CCCC2)CC(=O)N(C)CCCCCN(C)C1=O [Compound 489] | < 100 nM |
| CN1CCOCCOCCNC(=O)[C@@H](Cc2ccc(NC(=O)[C@H](CC3CCCCC3)NC(=O)Cc3ccc(N(C)C)cc3)cc2)NC(=O)CC2(CCCC2)CC1=O [Compound 614] | < 100 nM |
| NC(=O)CC[C@H]1NC(=O)[C@@H](Cc2ccc(NC(=O)[C@H](Cc3ccccc3Cl)NC(=O)C3(c4ccc(F)cc4)CC3)cc2)NC(=O)CC2(CCCC2)CC(=O)N[C@H](C(=O)O)CCCCNC1=O [Compound 527] | < 100 nM |
| COC(=O)N[C@@H](Cc1ccccc1Cl)C(=O)Nc1ccc(C[C@H]2NC(=O)CC3(CCCC3)CC(=O)N(C)CCOCCOCCNC2=O)cc1 [Compound 568] | < 100 nM |
| C[C@H]1NC(=O)[C@@H](CCNC(=O)[C@H](Cc2ccccc2Cl)NC(=O)C(F)(F)c2ccccc2)NC(=O)CC2(CCCC2)CC(=O)NCCCCCNC1=O [Compound 610] | > 10000 nM |
| O=C1CNC(=O)[C@@H](Cc2ccc(NC(=O)[C@@H](NC(=O)Cc3c(F)cc(F)cc3F)C3CCCCC3)cc2)NC(=O)CC2(CCCC2)CC(=O)NCCCCCN1 [Compound 404] | < 100 nM |
| C[C@H]1NC(=O)[C@@H](Cc2ccc(NC(=O)[C@H](Cc3ccccc3Cl)NC(=O)Cc3ccc(F)cc3)cc2)NC(=O)CC2(CCCC2)CC(=O)NCCN2CCN(CC2)C1=O [Compound 534] | < 100 nM |
| CN1CCCCCNC(=O)C(Cc2ccc(NC(=O)C(NC(=O)c3cccnc3)C3CCCCC3)cc2)NC(=O)CC2(CCCC2)CC1=O (centres unmarked) [Compound 421] | 1000 to 10000 nM |
| O=C1CC2(CCCC2)CC(=O)N[C@H](Cc2ccc(NC(=O)[C@@H](NC(=O)c3cccnc3)C3CCCCC3)cc2)C(=O)NCCCCN1 [Compound 409] | 100 to 1000 nM |
| CN1CCCCCN(C)C(=O)[C@@H](CC(N)=O)NC(=O)[C@@H](Cc2ccc(NC(=O)[C@H](Cc3ccccc3Cl)NC(=O)C(F)(F)c3ccccc3)cc2)NC(=O)CC2(CCCC2)CC1=O [Compound 669] | < 100 nM |
| C[C@H]1NC(=O)[C@@H](Cc2ccc(NC(=O)[C@@H](NC(=O)Cc3ccc(N(C)C)cc3)C3CCCCC3)cc2)NC(=O)CC2(CCCC2)CC(=O)N(C)CCN(C)CCN(C)C1=O [Compound 605] | < 100 nM |
| O=C1CNC(=O)[C@@H](Cc2ccc(NC(=O)[C@@H](NC(=O)c3cnc4ccccc4c3)C3CCCCC3)cc2)NC(=O)CC2(CCCC2)CC(=O)NCCCCCN1 [Compound 449] | 100 to 1000 nM |
| O=C1CNC(=O)[C@@H](Cc2ccc(NC(=O)[C@@H](NC(=O)c3ccc(F)cc3)C3CCCCC3)cc2)NC(=O)CC2(CCCC2)CC(=O)NCCCCCN1 [Compound 403] | < 100 nM |
| O=C1CC2(CCCC2)CC(=O)N[C@H](Cc2ccc(NC(=O)[C@H](Cc3ccccc3Cl)NC(=O)C(F)(F)c3ccccc3)cc2)C(=O)NCCCCCCCCN1 [Compound 597] | < 100 nM |
| CCOC(=O)N[C@@H](Cc1ccccc1Cl)C(=O)Nc1ccc(C[C@H]2NC(=O)CC3(CCCC3)CC(=O)NCCCCCNC(=O)[C@@H](C)NC2=O)cc1 [Compound 577] | < 100 nM |
| CN1CCOCCOCCN(C)C(=O)[C@@H](Cc2ccc(NC(=O)[C@H](Cc3ccccc3Cl)NC(=O)C(F)(F)c3ccccc3)cc2)NC(=O)CC2(CCCC2)CC1=O [Compound 591] | < 100 nM |
| O=C1CC2(CCCC2)CC(=O)N[C@H](Cc2ccc(NC(=O)[C@@H](NC(=O)c3cccnc3)C3CCCCC3)cc2)C(=O)NCC#CCCCCCN1 [Compound 458] | 1000 to 10000 nM |
| C[C@H]1NC(=O)[C@@H](Cc2ccc(NC(=O)[C@H](Cc3ccccc3Cl)NC(=O)Cc3ccc(F)cc3)cc2)NC(=O)CC2(CC2)CC(=O)NCCCCCNC1=O [Compound 554] | < 100 nM |
| C[C@H]1NC(=O)[C@@H](Cc2ccc(NC(=O)[C@H](Cc3ccccc3Cl)Nc3nc4ccccc4o3)cc2)NC(=O)CC2(CCCC2)CC(=O)N(C)CCOCCN(C)C1=O [Compound 654] | < 100 nM |
| CN1CCCCCN(C)C(=O)[C@@H](Cc2ccncc2)NC(=O)[C@@H](Cc2ccc(NC(=O)[C@H](Cc3ccccc3Cl)NC(=O)Cc3cccnc3)cc2)NC(=O)CC2(CCCC2)CC1=O [Compound 629] | < 100 nM |
| COC(=O)N[C@H](C(=O)Nc1ccc(C[C@H]2NC(=O)CC3(CCCC3)CC(=O)N(C)CCCCCN(C)C(=O)[C@@H](C)NC2=O)cc1)C1CCCCC1 [Compound 625] | 100 to 1000 nM |
| O=C1CNC(=O)[C@@H](Cc2ccc(NC(=O)[C@@H](NC(=O)c3ccc(Cl)cc3)C3CCCCC3)cc2)NC(=O)CC2(CCCC2)CC(=O)NCCCCCN1 [Compound 396] | < 100 nM |
| CN1CCCCCNC(=O)CC2(CCCC2)CC(=O)N(C)[C@H](Cc2ccc(N(C)C(=O)[C@H](Cc3ccccc3Cl)N(C)C(=O)Cc3ccccc3)cc2)C(=O)N(C)CC1=O [Compound 363] | 100 to 1000 nM |
